How the values were obtained:
Assay type in all cases: in vivo
[1] = test system: barnyardgrass (Echinochloa crus-galli); experiment: Test A preemergence; settings: for Plant response rating, Barnyardgrass: 125 g ai/ha; for Barnyardgrass plant response rating (0 to 100 scale, 0 is no effect, 100 is complete control): 500 g ai/ha, visual injury approx. 10 d
How it was run: (§1)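 Visual injury scores from 0, no effect, to 100, complete control, were assigned versus untreated controls roughly 10 d after treatment in the greenhouse. Test chemicals, formulated with surfactant in a non-phytotoxic solvent, were applied to planted seeds as a preemergence soil spray or postemergence to one- to two-leaf plants 2 to 10 cm tall, in loam–sand soil.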

[2] = test system: pigweed (Amaranthus retroflexus); experiment: Test A preemergence; settings: for Plant response rating, Pigweed: 125 g ai/ha; for Pigweed plant response rating (0 to 100 scale, 0 is no effect, 100 is complete control): 500 g ai/ha, visual injury approx. 10 d
[3] = test system: ryegrass, Italian (Italian ryegrass, Lolium multiflorum); experiment: Test A preemergence; settings: for Plant response rating, Ryegrass, Italian: 125 g ai/ha; for Ryegrass, Italian plant response rating (0 to 100 scale, 0 is no effect, 100 is complete control): 500 g ai/ha, visual injury approx. 10 d
How it was run: as §1

Kochia (Kochia scoparia) [4] = experiment: Test A preemergence; settings: for Plant response rating, Kochia: 125 g ai/ha; for Kochia plant response rating (0 to 100 scale, 0 is no effect, 100 is complete control): 500 g ai/ha, visual injury approx. 10 d
How it was run: as §1

[5] = test system: giant foxtail (Setaria faberii); experiment: Test A preemergence; settings: for Plant response rating, Foxtail, Giant: 125 g ai/ha; for Foxtail, Giant plant response rating (0 to 100 scale, 0 is no effect, 100 is complete control): 500 g ai/ha, visual injury approx. 10 d
How it was run: as §1

[6] = test system: ragweed (common ragweed, Ambrosia elatior); experiment: Test A preemergence; settings: Preemergence; for Plant response rating, Ragweed: 125 g ai/ha, visual injury after approximately 10 d, 0 to 100 scale where 0 is no effect and 100 is complete control; for Ragweed plant response rating (0 to 100 scale, 0 is no effect, 100 is complete control): 500 g ai/ha, visual injury approx. 10 d
How it was run: as §1

rice (Oryra sativa) = experiment: Test B flooded paddy test; settings: Flood, 250 g ai/ha; 0 to 100 scale where 0 is no effect and 100 is complete control; 13 to 15 d
How it was run: (§2)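 Percent control, visually estimated after 13–15 d in the greenhouse on a 0–100 basis, compares treated pots with untreated ones; compound was put into paddy water 3 cm above the soil when plants had two leaves.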

[7] = test system: barnyardgrass (Echinochloa crus-galli); experiment: Test B flooded paddy test; settings: Flood, 250 g ai/ha; 0 to 100 scale where 0 is no effect and 100 is complete control; 13 to 15 d
How it was run: as §2

[8] = test system: sedge, umbrella (small-flower umbrella sedge, Cyperus difformis); experiment: Test B flooded paddy test; settings: Flood, 250 g ai/ha; 0 to 100 scale where 0 is no effect and 100 is complete control; 13 to 15 d
How it was run: as §2

[9] = test system: ducksalad (Heteranthera limosa); experiment: Test B flooded paddy test; settings: Flood, 250 g ai/ha; 0 to 100 scale where 0 is no effect and 100 is complete control; 13 to 15 d
How it was run: as §2

[10] = test system: blackgrass (Alopecurus myosuroides); experiment: Test A postemergence; settings: for Blackgrass plant response rating: 125 g ai/ha, visual injury rating on 0 to 100 scale (0 no effect, 100 complete control), approx. 10 d; for Plant response rating, Blackgrass: 500 g ai/ha
How it was run: as §1

[11] = test system: barnyardgrass (Echinochloa crus-galli); experiment: Test A postemergence; settings: for Barnyardgrass plant response rating: 125 g ai/ha, visual injury rating on 0 to 100 scale (0 no effect, 100 complete control), approx. 10 d; for Plant response rating, Barnyardgrass: 500 g ai/ha
How it was run: as §1

[12] = test system: pigweed (Amaranthus retroflexus); experiment: Test A postemergence; settings: for Pigweed plant response rating: 125 g ai/ha, visual injury rating on 0 to 100 scale (0 no effect, 100 complete control), approx. 10 d; for Plant response rating, Pigweed: 500 g ai/ha
How it was run: as §1

[13] = test system: ryegrass, Italian (Italian ryegrass, Lolium multiflorum); experiment: Test A postemergence; settings: for Ryegrass, Italian plant response rating: 125 g ai/ha, visual injury rating on 0 to 100 scale (0 no effect, 100 complete control), approx. 10 d; for Plant response rating, Ryegrass, Italian: 500 g ai/ha
How it was run: as §1

corn (Zea mays) = experiment: Test A postemergence; settings: for Corn plant response rating: 125 g ai/ha, visual injury rating on 0 to 100 scale (0 no effect, 100 complete control), approx. 10 d; for Plant response rating, Corn: 500 g ai/ha
How it was run: as §1

[14] = test system: Galium (catchweed bedstraw, Galium aparine); experiment: Test A postemergence; settings: for Galium plant response rating: 125 g ai/ha, visual injury rating on 0 to 100 scale (0 no effect, 100 complete control), approx. 10 d; for Plant response rating, Galium: 500 g ai/ha
How it was run: as §1

Kochia (Kochia scoparia) [15] = experiment: Test A postemergence; settings: for Kochia plant response rating: 125 g ai/ha, visual injury rating on 0 to 100 scale (0 no effect, 100 complete control), approx. 10 d; for Plant response rating, Kochia: 500 g ai/ha
How it was run: as §1

[16] = test system: giant foxtail (Setaria faberii); experiment: Test A postemergence; settings: for Foxtail, Giant plant response rating: 125 g ai/ha, visual injury rating on 0 to 100 scale (0 no effect, 100 complete control), approx. 10 d; for Plant response rating, Foxtail, Giant: 500 g ai/ha
How it was run: as §1

[17] = test system: wheat (Triticum aestivum); experiment: Test A postemergence; settings: for Wheat plant response rating: 125 g ai/ha, visual injury rating on 0 to 100 scale (0 no effect, 100 complete control), approx. 10 d; for Plant response rating, Wheat: 500 g ai/ha
How it was run: as §1

[18] = test system: ragweed (common ragweed, Ambrosia elatior); experiment: Test A postemergence; settings: for Ragweed plant response rating: 125 g ai/ha, visual injury rating on 0 to 100 scale (0 no effect, 100 complete control), approx. 10 d; for Plant response rating, Ragweed: 500 g ai/ha
How it was run: as §1

[19] = preemergence, 0 to 100 scale (0 no effect, 100 complete control)
[20] = Preemergence, visual injury after approximately 10 d, 0 to 100 scale where 0 is no effect and 100 is complete control
[21] = postemergence, 0 to 100 scale, 0 no effect, 100 complete control
[22] = Postemergence, 0 to 100 scale where 0 is no effect and 100 is complete control

SMILES | Barnyardgrass plant response rating (0 to 100 scale, 0 is no effect, 100 is complete control) ([1]; Preemergence) | Pigweed plant response rating (0 to 100 scale, 0 is no effect, 100 is complete control) ([2]; Preemergence) | Ryegrass, Italian plant response rating (0 to 100 scale, 0 is no effect, 100 is complete control) ([3]; Preemergence) | Kochia plant response rating (0 to 100 scale, 0 is no effect, 100 is complete control) (Kochia (Kochia scoparia) [4]; Preemergence) | Foxtail, Giant plant response rating (0 to 100 scale, 0 is no effect, 100 is complete control) ([5]; Preemergence) | Ragweed plant response rating (0 to 100 scale, 0 is no effect, 100 is complete control) [6] | Plant response rating, Rice (rice (Oryra sativa)) | Plant response rating, Barnyardgrass [7] | Plant response rating, Sedge, Umbrella [8] | Plant response rating, Ducksalad [9] | Blackgrass plant response rating ([10]; postemergence) | Barnyardgrass plant response rating ([11]; postemergence) | Pigweed plant response rating ([12]; postemergence) | Ryegrass, Italian plant response rating ([13]; postemergence) | Corn plant response rating (corn (Zea mays); postemergence) | Galium plant response rating ([14]; postemergence) | Kochia plant response rating (Kochia (Kochia scoparia) [15]; postemergence) | Foxtail, Giant plant response rating ([16]; postemergence) | Wheat plant response rating ([17]; postemergence) | Ragweed plant response rating ([18]; postemergence) | other results
CC(C)=CCN1CC(c2cccc(C(F)(F)F)c2)C(C(=O)Nc2ccccc2F)C1=O (centres unmarked) [Compound 478] | 60 | 0 | 0 | 0 | 80 | 0 | 0 | 0 | 0 | 0 | 0 | 30 | 0 | 0 | 0 | 0 | 0 | 20 | 0 | 0 | Plant response rating, Barnyardgrass [1, 19]: 20; Plant response rating, Pigweed [2, 20]: 0; Plant response rating, Ryegrass, Italian [3, 20]: 0; Plant response rating, Kochia (Kochia (Kochia scoparia) [4]; [19]): 0; Plant response rating, Foxtail, Giant [5, 19]: 70; Plant response rating, Ragweed [6]: 0; Plant response rating, Blackgrass [10, 21]: 20; Plant response rating, Barnyardgrass [11, 21]: 60; Plant response rating, Pigweed [12, 22]: 0; Plant response rating, Ryegrass, Italian [13, 22]: 20; Plant response rating, Corn (corn (Zea mays); [21]): 0; Plant response rating, Galium [14, 22]: 0; Plant response rating, Kochia (Kochia (Kochia scoparia) [15]; [22]): 0; Plant response rating, Foxtail, Giant [16, 22]: 60; Plant response rating, Wheat [17, 22]: 20; Plant response rating, Ragweed [18, 22]: 0
CC(=O)N1CC(c2cccc(C(F)(F)F)c2)C(C(=O)Nc2ccccc2F)C1=O (centres unmarked) [Compound 503] | 90 | 40 | 50 | 20 | 90 | 0 | 0 | 45 | 0 | 85 | 30 | 90 | 0 | 40 | 20 | 30 | 0 | 90 | 0 | 30 | Plant response rating, Barnyardgrass [1, 20]: 90; Plant response rating, Pigweed [2, 20]: 0; Plant response rating, Ryegrass, Italian [3, 20]: 0; Plant response rating, Kochia (Kochia (Kochia scoparia) [4]; [20]): 0; Plant response rating, Foxtail, Giant [5, 20]: 90; Plant response rating, Ragweed [6]: 0; Plant response rating, Blackgrass [10, 22]: 70; Plant response rating, Barnyardgrass [11, 22]: 90; Plant response rating, Pigweed [12, 22]: 0; Plant response rating, Ryegrass, Italian [13, 22]: 70; Plant response rating, Corn (corn (Zea mays); [22]): 80; Plant response rating, Galium [14, 22]: 70; Plant response rating, Kochia (Kochia (Kochia scoparia) [15]; [22]): 0; Plant response rating, Foxtail, Giant [16, 22]: 90; Plant response rating, Wheat [17, 22]: 40; Plant response rating, Ragweed [18, 22]: 30
O=C1NCC(c2ccc(C3CC3)cc2)C1C(=O)Nc1cccc(F)c1F (racemic) [Compound 501] | 90 | 20 | 0 | 30 | 90 | 50 | 0 | 20 | 0 | 85 | 30 | 50 | 0 | 0 | 0 | 0 | 0 | 70 | 0 | 0 | Plant response rating, Barnyardgrass [1, 20]: 80; Plant response rating, Pigweed [2, 20]: 0; Plant response rating, Ryegrass, Italian [3, 20]: 0; Plant response rating, Kochia (Kochia (Kochia scoparia) [4]; [20]): 0; Plant response rating, Foxtail, Giant [5, 20]: 80; Plant response rating, Ragweed [6]: 0; Plant response rating, Blackgrass [10, 22]: 40; Plant response rating, Barnyardgrass [11, 22]: 80; Plant response rating, Pigweed [12, 22]: 0; Plant response rating, Ryegrass, Italian [13, 22]: 20; Plant response rating, Corn (corn (Zea mays); [22]): 30; Plant response rating, Galium [14, 22]: 0; Plant response rating, Kochia (Kochia (Kochia scoparia) [15]; [22]): 0; Plant response rating, Foxtail, Giant [16, 22]: 80; Plant response rating, Wheat [17, 22]: 0; Plant response rating, Ragweed [18, 22]: 0
Cc1cc(C2CN(C)C(=O)C2C(=O)Nc2ccccc2F)ccc1F (centres unmarked) [Compound 402] | 90 | 50 | 40 | 70 | 90 | 70 | 0 | 100 | 0 | 90 | 50 | 90 | 40 | 30 | 70 | 50 | 20 | 90 | 50 | 20 | Plant response rating, Barnyardgrass [1, 19]: 90; Plant response rating, Pigweed [2, 19]: 30; Plant response rating, Ryegrass, Italian [3, 19]: 20; Plant response rating, Kochia (Kochia (Kochia scoparia) [4]; [19]): 40; Plant response rating, Foxtail, Giant [5, 19]: 90; Plant response rating, Blackgrass [10, 21]: 70; Plant response rating, Barnyardgrass [11, 21]: 90; Plant response rating, Pigweed [12, 21]: 50; Plant response rating, Ryegrass, Italian [13, 21]: 50; Plant response rating, Corn (corn (Zea mays); [21]): 80; Plant response rating, Galium [14, 21]: 60; Plant response rating, Kochia (Kochia (Kochia scoparia) [15]; [21]): 60; Plant response rating, Foxtail, Giant [16, 21]: 90; Plant response rating, Wheat [17, 21]: 80; Plant response rating, Ragweed [18, 21]: 60

— patent US12077503B2, “Substituted cyclic amides and their use as herbicides” (FMC CORPORATION, priority 2015, dated 2024)
